Experimental data as given in patent US20160237499A1, “Genetic Markers for Antipsychotic Induced Weight Gain and Methods for Use Thereof” (CENTRE FOR ADDICTION AND MENTAL HEALTH, priority 2013, published 2016).

Tests used:
[1] = administered into the parabrachial nucleus in the brainstem; cited from earlier work
[2] = Percentage weight change in antipsychotic-treated schizophrenia patients; format: in vivo, human; details: Sample B (N = 56), SCZ patients of European ancestry receiving clozapine; study duration 6.00 ± 0.00 weeks; mean ± SD
Procedure: In total, 160 participants with psychotic symptoms were included in this study. Diagnosis for schizophrenia (SCZ) was assessed by the Structured Diagnostic Interviews for DSM-IIIR and/or DSM-IV diagnoses (SCID-I,^31,32), except for sample A where diagnoses were based on an interview assessing both DSM and ICD diagnoses. The inclusion criteria for adult probands were DSM-IIIR/IV diagnosis of SCZ or schizoaffective disorder, with psychotic symptoms. A written informed consent was obtained after the complete study description was given to each participant, and the study has been approved by the Research Ethics Board.
Sample A (N=93) was collected at the Charité University Medicine, Berlin, Germany. […] Clozapine serum levels were monitored during the course of the treatment to ascertain compliance. Clinical response was assessed after 6 weeks using the Brief Psychiatric Rating Scale (BPRS)^35. […]
Statistical analyses of demographic variables, which included sex, age at recruitment, and duration of treatment, were performed across samples using Fisher's Exact tests, analysis of variance, or Kruskal-Wallis tests (Table 1). […] We also analyzed the ‘percent weight change’ variable in a meta-analytic approach to take into account heterogeneity across the three patient sample groups using STATA version 8 (e.g.,^48). […] Linkage disequilibrium and r^2 between marker pairs as determined by Haploview 4.1^49. […]

[3] = patients treated with second-generation antipsychotics; cited from earlier work

SMILES	food intake [1]	other results
Cn1ncnc1COc1nn2c(-c3cc(F)ccc3F)nnc2cc1C(C)(C)C [L-838417]	increased food intake	–
CN1CCN(C2=Nc3cc(Cl)ccc3Nc3ccccc32)CC1 [clozapine]	–	Percentage weight change [2]: 3.88 ± 5.770
Cc1cc2c(s1)Nc1ccccc1N=C2N1CCN(C)CC1 [olanzapine]	–	treated patients experiencing significant weight gain [3]: about 30%
Cc1ncc2n1-c1ccc(Cl)cc1C(c1ccccc1F)=NC2 [midazolam]	increased food intake	–
